Results on 24 compounds are retold here after US20250340570A1, “COMPOSITIONS USEFUL FOR MODULATING SPLICING” (Skyhawk Therapeutics, Inc., priority 2022, published 2025).

For assay [1], the system named is ATXN3 transcripts containing exon 4. Description: ATXN3 quantitative splicing assay (qPCR, E4E5 transcripts containing exon 4). In kind it is cell-based. Particulars: Human neuroblastoma SK-N-MC cells, 24 h treatment, qPCR primers/probe E4E5. As for the experimental part: Human neuroblastoma SK-N-MC cells were plated in 384-well plates at 20,000 cells/well. Twenty-four hours after plating, cells were treated with compounds for 24 h at appropriate concentrations ranging from 30 μM to 0.6 nM (0.3% DMSO). Treated cells were lysed in 15 μL of lysis buffer, and cDNA was synthesized using the Fast Advanced Cells-to-Ct kit. Two μL of each cDNA was used in qPCR reactions to confirm the exon 4 skipped transcripts of ATXN3. A second set of primers/probe E4E5 was used to detect the transcripts containing exon 4. The third set of primers/probe E8E9 was used to detect total gene level of ATXN3. The qPCR reactions were prepared in 384-well plates in 10.L volume, using TaqMan™ Fast Advanced Master Mix with primers and probes shown in the table below. Reactions were run in a Quant Studio 6 qPCR instrument with default settings.
The primers and probes are listed below in Table 5.
Background: Quantitative PCR measures a nucleic acid by following its amplification.

Another assay concerns total ATXN3 protein. In words: ATXN3 total protein assay (Mesoscale Discovery). In kind it is cell-based. Particulars: Human neuroblastoma SK-N-MC cells, 48 hours incubation, MSD assay. Here is the method:
Human neuroblastoma SK-N-MC cells were seeded at 10,000 cells/well in 384 well plates one day prior to compound treatment. The concentrations of compounds were tested at appropriate doses ranging from 30 µM to 0.6 nM. After incubation for 48 hours, the cells were lysed with 25.L of lysis buffer containing protease inhibitors, and total ATXN3 protein levels were assessed by Mesoscale Discovery (MSD) assay developed with one pair of and-ATXN3 antibodies. The capture and detect antibodies were raised in mouse and rabbit respectively. Anti-rabbit MSD-ST antibody was used for secondary antibody.
ATXN3 recombinant protein was used for standards. The readouts were captured with 35.L of MSD read buffer and multi-array 384-well high binding plates.

Take `FC(F)(F)c1csc2c(NCc3cccs3)snc12` [Compound 67, (thenyl){8-(trifluoromethyl)-3,6-dithia-2-azabicyclo[3.3.0]octa-1,4,7-trien-4-yl}amine]: the IC50 (in assay [1]; in the assay on total ATXN3 protein) was 10 to 40 µM in each case.

For `C[C@@H](F)[C@H](N)Cc1sc2c(NCc3nccs3)snc2c1Br` [Compound 106, 7-[(2R,3R)-2-amino-3-fluorobutyl]-8-bromo-4-{[(1,3-thiazol-2-yl)methyl]amino}-3,6-dithia-2-azabicyclo[3.3.0]octa-1,4,7-triene], the IC50 (in assay [1]; in the assay with total ATXN3 protein) was 0.501 to 5 µM in each case.

Regarding `C[C@H](N)C(O)c1sc2c(NCc3cccs3)snc2c1Cl` (stereo partly drawn) [Compound 102, (2S)-2-amino-1-(8-chloro-4-thenylamino-3,6-dithia-2-azabicyclo[3.3.0]octa-1,4,7-trien-7-yl)-1-propanol], the IC50 (in assay [1]; with total ATXN3 protein) was 10 to 40 µM each time.

On to `Cc1c(C[C@@H](N)CC(F)(F)F)sc2c(NCc3cccs3)snc12` [Compound 36, 7-[(S)-2-amino-4,4,4-trifluorobutyl]-8-methyl-4-thenylamino-3,6-dithia-2-azabicyclo[3.3.0]octa-1,4,7-triene], for which the IC50 (in assay [1]; in the assay with total ATXN3 protein) was 0.501 to 5 µM in each case.

For the compound `C[C@H](N)Cc1sc2c(NCc3nccs3)snc2c1Cl` [Compound 76, 7-[(S)-2-aminopropyl]-8-chloro-4-{[(1,3-thiazol-2-yl)methyl]amino}-3,6-dithia-2-azabicyclo[3.3.0]octa-1,4,7-triene], the half-inhibitory concentration (IC50) (in assay [1]; in the assay with total ATXN3 protein) was 0.101 to 0.5 µM throughout.

Take `Cc1c(C[C@@H](N)CO)sc2c(NCc3cccs3)snc12` [Compound 37, (R)-2-amino-3-(8-methyl-4-thenylamino-3,6-dithia-2-azabicyclo[3.3.0]octa-1,4,7-trien-7-yl)-1-propanol]: the IC50 (in assay [1]; with total ATXN3 protein) was 0.501 to 5 µM each time.

Consider `N[C@H](Cc1sc2c(NCc3cccs3)snc2c1Br)CC(F)(F)F` [Compound 39, 7-[(S)-2-amino-4,4,4-trifluorobutyl]-8-bromo-4-thenylamino-3,6-dithia-2-azabicyclo[3.3.0]octa-1,4,7-triene], for which the IC50 (in assay [1]; with total ATXN3 protein) was 0.501 to 5 µM each time.

For `C[C@H](N)C(F)(F)c1sc2c(NCc3ccco3)snc2c1Cl` [Compound 110, 7-[(S)-2-amino-1,1-difluoropropyl]-8-chloro-4-(furfurylamino)-3,6-dithia-2-azabicyclo[3.3.0]octa-1,4,7-triene], the IC50 (in assay [1]; in the assay on total ATXN3 protein) was 0.501 to 5 µM in each case.

Take `N[C@H](Cc1sc2c(NCc3ccco3)snc2c1Br)C(F)F` [Compound 111, 7-[(R)-2-amino-3,3-difluoropropyl]-8-bromo-4-(furfurylamino)-3,6-dithia-2-azabicyclo[3.3.0]octa-1,4,7-triene]: the IC50 (in assay [1]; in the assay on total ATXN3 protein) was 0.501 to 5 µM each time.

Regarding `Cc1c(C[C@@H](N)CC2CC2)sc2c(NCc3ccco3)snc12` [Compound 9, 7-[(S)-2-amino-3-cyclopropylpropyl]-4-(furfurylamino)-8-methyl-3,6-dithia-2-azabicyclo[3.3.0]octa-1,4,7-triene], the IC50 (in assay [1]; with total ATXN3 protein) was 0.501 to 5 µM in each case.

Take `Cc1csc2c(NCc3ccncc3)snc12` [Compound 1, [(4-pyridyl)methyl](8-methyl-3,6-dithia-2-azabicyclo[3.3.0]octa-1,4,7-trien-4-yl)amine]: the IC50 (in assay [1]; in the assay on total ATXN3 protein) was 10 to 40 µM each time.

Consider `C[C@H](N)Cc1sc2c(NCc3cccs3)snc2c1C1CC1` [Compound 20, 7-[(S)-2-aminopropyl]-8-cyclopropyl-4-thenylamino-3,6-dithia-2-azabicyclo[3.3.0]octa-1,4,7-triene], for which the IC50 (in assay [1]; in the assay with total ATXN3 protein) was 10 to 40 µM in each case.

As for `COC[C@H](N)Cc1sc2c(NCc3ccco3)snc2c1Br` [Compound 63, 7-[(R)-2-amino-3-methoxypropyl]-8-bromo-4-(furfurylamino)-3,6-dithia-2-azabicyclo[3.3.0]octa-1,4,7-triene], the IC50 (in assay [1]; with total ATXN3 protein) was 0.101 to 0.5 µM each time.

Consider `C[C@H](N)Cc1sc2c(NCc3cccs3)snc2c1CO` [Compound 87, {7-[(S)-2-aminopropyl]-4-thenylamino-3,6-dithia-2-azabicyclo[3.3.0]octa-1,4,7-trien-8-yl}methanol], for which the IC50 (in assay [1]; with total ATXN3 protein) was 10 to 40 µM each time.

Regarding `Cc1csc2c(NCc3ccccc3)snc12` [Compound 3, (benzyl)(8-methyl-3,6-dithia-2-azabicyclo[3.3.0]octa-1,4,7-trien-4-yl)amine], the IC50 (in assay [1]; with total ATXN3 protein) was 10 to 40 µM in each case.

Regarding `N[C@@H](CO)Cc1sc2c(NCc3cccs3)snc2c1Cl` [Compound 43, (R)-2-amino-3-(8-chloro-4-thenylamino-3,6-dithia-2-azabicyclo[3.3.0]octa-1,4,7-trien-7-yl)-1-propanol], the results for the IC50 (in assay [1]; with total ATXN3 protein) were 0.501 to 5 µM and 0.101 to 0.5 µM, respectively.

Turning to `COC[C@H](N)Cc1sc2c(NCc3cccs3)snc2c1C` [Compound 64, 7-[(R)-2-amino-3-methoxypropyl]-8-methyl-4-thenylamino-3,6-dithia-2-azabicyclo[3.3.0]octa-1,4,7-triene], the IC50 (in assay [1]; in the assay with total ATXN3 protein) was 0.501 to 5 µM in each case.

Consider `C[C@H](N)Cc1sc2c(NCc3ccco3)snc2c1O` [Compound 25, 7-[(S)-2-aminopropyl]-4-(furfurylamino)-3,6-dithia-2-azabicyclo[3.3.0]octa-1,4,7-trien-8-ol], for which the IC50 (in assay [1]; in the assay on total ATXN3 protein) was 10 to 40 µM throughout.

On to `N[C@H](Cc1sc2c(NCc3cccs3)snc2c1Br)CC(F)F` [Compound 70, 7-[(S)-2-amino-4,4-difluorobutyl]-8-bromo-4-thenylamino-3,6-dithia-2-azabicyclo[3.3.0]octa-1,4,7-triene], for which the IC50 (in assay [1]; in the assay on total ATXN3 protein) was 10 to 40 µM throughout.

For the compound `C#C[C@H](N)Cc1sc2c(NCc3cccs3)snc2c1C` [Compound 54, 7-[(R)-2-amino-3-butynyl]-8-methyl-4-thenylamino-3,6-dithia-2-azabicyclo[3.3.0]octa-1,4,7-triene], the IC50 (in assay [1]; in the assay on total ATXN3 protein) was 0.501 to 5 µM each time.

For the compound `C=Cc1c(C[C@H](C)N)sc2c(NCc3cccs3)snc12` [Compound 21, 5-[(2S)-2-aminopropyl]-6-ethenyl-N-(thiophen-2-ylmethyl) thieno[3,2-c][1,2]thiazol-3-amine], the IC50 (in assay [1]; in the assay with total ATXN3 protein) was 10 to 40 µM throughout.

On to `C[C@H](N)Cc1sc2c(NCc3cccs3)snc2c1Cl` [Compound 17, 7-[(S)-2-aminopropyl]-8-chloro-4-thenylamino-3,6-dithia-2-azabicyclo[3.3.0]octa-1,4,7-triene], for which the results for the IC50 (in assay [1]; with total ATXN3 protein) were 0.501 to 5 µM and 0.101 to 0.5 µM, respectively.

Consider `C=Cc1c(C[C@@H](N)[C@H](C)F)sc2c(NCc3cccs3)snc12` [Compound 97, 7-[(2R,3S)-2-amino-3-fluorobutyl]-4-thenylamino-8-vinyl-3,6-dithia-2-azabicyclo[3.3.0]octa-1,4,7-triene], for which the IC50 (in assay [1]; with total ATXN3 protein) was 0.501 to 5 µM each time.

With `N[C@H](Cc1sc2c(NCc3ccco3)snc2c1Cl)C(F)F` [Compound 101, 7-[(R)-2-amino-3,3-difluoropropyl]-8-chloro-4-(furfurylamino)-3,6-dithia-2-azabicyclo[3.3.0]octa-1,4,7-triene], the IC50 (in assay [1]; with total ATXN3 protein) was 0.501 to 5 µM each time.
